The values that follow come from patent US11034658B2, “Pyridinyl pyrazoles as modulators of RORγT” (Janssen Pharmaceutica NV, priority 2018, dated 2021).

The target of test [1] is human RORγt ligand binding domain (RORγt LBD) (Homo sapiens (Human), UniProt P51449). The test is described as follows: RORγt ThermoFluor assay. The text has this: ThermoFluor® is a fluorescence based assay that estimates ligand binding affinities by measuring the effect of a ligand on protein thermal stability (Pantoliano, M. W., Petrella, E. C., Kwasnoski, J. D., Lobanov, V. S., Myslik, J., Graf, E., Carver, T., Asel, E., Springer, B. A., Lane, P., and Salemme, F. R. (2001) High-density miniaturized thermal shift assays as a general strategy for drug discovery. J Biomol Screen 6, 429-40, and Matulis, D., Kranz, J. K., Salemme, F. R., and Todd, M. J. (2005) Thermodynamic stability of carbonic anhydrase: measurements of binding affinity and stoichiometry using ThermoFluor. Biochemistry 44, 5258-66). This approach is applicable to a wide variety of systems, and rigorous in theoretical interpretation through quantitation of equilibrium binding constants (KD).
Sequence of human RORγt ligand binding domain (RORγt LBD) (P51449 other isoform, or with tags, fused parts or gaps): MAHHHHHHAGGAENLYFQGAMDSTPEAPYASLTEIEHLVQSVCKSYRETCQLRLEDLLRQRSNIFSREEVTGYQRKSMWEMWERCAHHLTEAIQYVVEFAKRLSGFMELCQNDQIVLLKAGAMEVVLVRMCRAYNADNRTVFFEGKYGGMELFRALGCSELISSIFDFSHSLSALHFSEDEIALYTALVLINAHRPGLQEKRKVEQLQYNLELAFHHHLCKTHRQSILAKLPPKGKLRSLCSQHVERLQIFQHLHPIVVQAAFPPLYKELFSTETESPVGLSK
The shift in the melting point described as a ΔTm is proportional to the concentration and affinity of the ligand. The compound potency may be compared as a rank order of either values at a single compound concentration or in terms of KD values, estimated from concentration response curves.
RORγt ThermoFluor® Assay Construct
For the RORγt construct used in the ThermoFluor® assay, numbering for the nucleotide sequences was based on the reference sequence for human RORγt, transcript variant 2, NCBI Accession: NM 001001523.1 (SEQ ID NO:1). Nucleotides 850-1635 (SEQ ID NO:2) coding for the wild type human RORγt ligand binding domain (RORγt LBD) were cloned into the pHIS1 vector, a modified pET E. coli expression vector (Accelagen, San Diego), containing an in-frame N-terminal His-tag and a TurboTEV protease cleavage site (ENLYFQG, SEQ ID NO:3) upstream of the cloned insert sequence. The amino acid sequence for the RORγt construct used in the Thermofluor® assay is shown as SEQ ID NO:4.
ThermoFluor® experiments were carried out using instruments owned by Janssen Research and Development, L.L.C. through its acquisition of 3-Dimensional Pharmaceuticals, Inc. 1,8-ANS (Invitrogen) was used as a fluorescent dye. Protein and compound solutions are dispensed into black 384-well polypropylene PCR microplates (Abgene) and overlayed with silicone oil (1 μL, Fluka, type DC 200) to prevent evaporation.
Bar-coded assay plates are robotically loaded onto a thermostatically controlled PCR-type thermal block and then heated at a typical ramp-rate of 1° C./min for all experiments. Fluorescence was measured by continuous illumination with UV light (Hamamatsu LC6) supplied via fiber optic and filtered through a band-pass filter (380-400 nm; >6 OD cutoff). Fluorescence emission of the entire 384-well plate was detected by measuring light intensity using a CCD camera (Sensys, Roper Scientific) filtered to detect 500±25 nm, resulting in simultaneous and independent readings of all 384 wells. Images were collected at each temperature, and the sum of the pixel intensity in a given area of the assay plate was recorded versus temperature. Reference wells contained RORγt without compounds, and the assay conditions were as follows:
Project compounds were arranged in a pre-dosed mother plate (Greiner Bio-one) wherein compounds are serially diluted in 100% DMSO by 1:2 from a high concentration of 10 mM over 12 columns within a series (column 12 is a reference well containing DMSO, no compound). The compounds were robotically dispensed directly into assay plates (1×=46 nL) using a Hummingbird capillary liquid handling instrument (Digilab). Following compound dispense, protein and dye in buffer was added to achieve the final assay volume of 3 μL, followed by 1 μL of silicone oil.
The binding affinity was estimated as described previously (Matulis, D., Kranz, J. K., Salemme, F. R., and Todd, M. J. (2005) Thermodynamic stability of carbonic anhydrase: measurements of binding affinity and stoichiometry using ThermoFluor®. Biochemistry 44, 5258-66) using the following thermodynamic parameters of protein unfolding:
Reference RORγt Tm: 47.8° C.
(In general: DSF heats the sample and reads unfolding from a dye or from intrinsic fluorescence.)

Test [2] deals with full-length human RORγt (GAL4-DBD-RORγt fusion) in HEK293T cells (Homo sapiens (Human), UniProt P51449). The test is described as follows: RORγt (full-length human) reporter assay, conditions A or B. Type of test: cell-based. To be noted: for IC50: HEK293T cells, read-out: RORγt (FL) Reporter Assay A or B, IC50. The method, then: RORγt (Full-Length Human) Reporter Assay:
(§1) HEK293T cells were plated at 35,000 per well in 96-well plate in medium of DMEM with 10% FBS. […] After overnight (16 to 20 hours) incubation, media were removed and cells were lysed with 50 μL Glo Lysis Buffer (Promega) for 10-15 minutes followed by 10 minute incubation with 50 μL Dual Glo reagent (Promega) at room temperature. Firefly luciferase luminescence was measured using a BMG Pherastar plate reader. To each well, 50 μL Stop and Glo reagent was added and incubated for 10 minutes at room temperature. Renilla luminescence was measured using a BMG Pherastar plate reader. To calculate the effect of compounds on RORγt activity, firefly values were normalized against values of DMSO only and values of reference compound at saturating concentration, then further normalized against Renilla signals. IC50s were generated by plotting final Renilla normalized data against compound concentration and percent inhibition was calculated against DMSO control.
as §1, with “at 8750 cells” for “at 35,000”, “in 384-well” for “in 96-well”, “with 20” for “with 50”, “well, 20” for “well, 50”
(In a reporter assay the amount or activity of a reporter protein is the signal.)

The mark [3] stands for this setting: HEK-293T, 3 μM compound concentration (footnote *), read-out: RORγt (FL) Reporter Assay A or B, % inhibition.

The Kd is the constant that tells how readily two partners part at equilibrium. The low end stands for higher affinity, the high end for lower affinity. What is called IC50 is the point on the concentration scale where inhibition reaches its midpoint. As a reminder, the inhibition is the drop in the measured response relative to a control, in per cent.

Marks after values point to notes of the source that are not given here.

Sequence of full-length human RORγt (GAL4-DBD-RORγt fusion) in HEK293T cells (P51449 other isoform, or with tags, fused parts or gaps): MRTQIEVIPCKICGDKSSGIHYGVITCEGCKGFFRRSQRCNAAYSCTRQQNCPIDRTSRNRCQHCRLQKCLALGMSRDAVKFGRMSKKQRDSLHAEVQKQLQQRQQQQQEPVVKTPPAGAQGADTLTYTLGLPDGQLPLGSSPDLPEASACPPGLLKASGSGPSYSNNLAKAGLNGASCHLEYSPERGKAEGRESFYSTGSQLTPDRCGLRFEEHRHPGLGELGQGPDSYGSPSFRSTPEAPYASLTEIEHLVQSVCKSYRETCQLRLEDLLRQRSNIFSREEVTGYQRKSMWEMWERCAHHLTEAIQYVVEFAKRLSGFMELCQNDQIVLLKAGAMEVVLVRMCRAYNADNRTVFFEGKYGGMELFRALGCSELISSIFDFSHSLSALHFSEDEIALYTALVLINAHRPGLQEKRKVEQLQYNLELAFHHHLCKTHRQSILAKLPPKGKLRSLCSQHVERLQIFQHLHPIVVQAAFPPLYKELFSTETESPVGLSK

With `CCn1nc(C(=O)NC[C@@]2(O)CC[C@H](S(C)(=O)=O)C[C@@H]2O)c(Cl)c1-c1cnc(CC(C)(C)C(F)(F)F)cc1OC(F)F` (stereo in doubt) [Example 4, 4-Chloro-5-(4-(difluoromethoxy)-6-(3,3,3-trifluoro-2,2-dimethylpropyl)pyridin-3-yl)-N-(((1S*,2S*,4S*)-1,2-dihydroxy-4-(methylsulfonyl)cyclohexyl)methyl)-1-ethyl-1H-pyrazole-3-carboxamide], the Kd in test [1] is 9.1 nM. In addition, in test [2], the half-maximal inhibitory concentration (IC50) came to 55 nM. The inhibition at 3 µM in test [2] (setting [3]) was determined as 100%.
With `CCn1nc(C(=O)NC[C@@]2(O)CC[C@H](S(C)(=O)=O)C[C@@H]2O)c(Cl)c1-c1cnc(CC(C)(C)C(F)F)cc1OC(F)F` (stereo in doubt) [Example 39, 4-Chloro-5-(6-(3,3-difluoro-2,2-dimethylpropyl)-4-(difluoromethoxy)pyridin-3-yl)-N-(((1S*,2S*,4S*)-1,2-dihydroxy-4-(methylsulfonyl)cyclohexyl)methyl)-1-ethyl-1H-pyrazole-3-carboxamide], in test [1], the Kd is 40 nM. Moreover, the IC50 in test [2] was 730 nM. Further, in test [2] (setting [3]), the inhibition at 3 µM stood at 72%.
The like results for `CCn1nc(C(=O)NC[C@]2(O)CC[C@@H](S(C)(=O)=O)C[C@H]2O)c(Cl)c1-c1cnc(CC(C)(C)C(F)F)cc1OC(F)F` (stereo in doubt) [Example 40, 4-Chloro-5-(6-(3,3-difluoro-2,2-dimethylpropyl)-4-(difluoromethoxy)pyridin-3-yl)-N-(((1R*,2R*,4R*)-1,2-dihydroxy-4-(methylsulfonyl)cyclohexyl)methyl)-1-ethyl-1H-pyrazole-3-carboxamide] were, in that order, 40 nM, 570 nM and 84%.
For `CCn1nc(C(=O)NC[C@@]2(O)CC[C@H](S(C)(=O)=O)C[C@@H]2O)c(C)c1-c1cnc(CC(C)(C)C(F)F)cc1OC(F)F` (stereo in doubt) [Example 43, 5-(6-(3,3-Difluoro-2,2-dimethylpropyl)-4-(difluoromethoxy)pyridin-3-yl)-N-(41S*,2S*,4S*)-1,2-dihydroxy-4-(methylsulfonyl)cyclohexyl)methyl)-1-ethyl-4-methyl-1H-pyrazole-3-carboxamide], the affinity in test [1], expressed as Kd, was 66 nM. Besides, the IC50 in test [2] stood at 320 nM. In test [2] (HEK-293T, 1 μM compound concentration (footnote ***), read-out: RORγt (FL) Reporter Assay A or B, % inhibition), the inhibition at 1 µM turned out to be 84%.
`CCn1nc(C(=O)NC[C@]2(O)CC[C@@H](S(C)(=O)=O)C[C@H]2O)c(C)c1-c1cnc(CC(C)(C)C(F)F)cc1OC(F)F` (stereo in doubt) [Example 44, 5-(6-(3,3-Difluoro-2,2-dimethylpropyl)-4-(difluoromethoxy)pyridin-3-yl)-N-(((1R*,2R*,4R*)-1,2-dihydroxy-4-(methylsulfonyl)cyclohexyl)methyl)-1-ethyl-4-methyl-1H-pyrazole-3-carboxamide] came in with a Kd in test [1] of 69 nM. In test [2], the concentration for half-maximal inhibition (IC50) is 890 nM. In addition, the inhibition at 3 µM in test [2] (setting [3]) was determined as 85%.
The like results for `CCn1nc(C(=O)NC[C@]2(O)CC[C@@H](S(C)(=O)=O)C[C@H]2O)c(Cl)c1-c1ccc(CC(C)(C)C(F)(F)F)nc1OC(F)F` (stereo in doubt) [Example 47, 4-Chloro-5-(2-(difluoromethoxy)-6-(3,3,3-trifluoro-2,2-dimethylpropyl)pyridin-3-yl)-N-(((1R*,2R*,4R*)-1,2-dihydroxy-4-(methylsulfonyl)cyclohexyl)methyl)-1-ethyl-1H-pyrazole-3-carboxamide] were, in that order, 1.7 nM, 44 nM and 95%.
The like results for `CCn1nc(C(=O)NC[C@@]2(O)CC[C@H](S(C)(=O)=O)C[C@@H]2O)c(Cl)c1-c1ccc(CC(C)(C)C(F)(F)F)nc1OC(F)F` (stereo in doubt) [Example 48, 4-Chloro-5-(2-(difluoromethoxy)-6-(3,3,3-trifluoro-2,2-dimethylpropyl)pyridin-3-yl)-N-(((1S*,2S*,4S*)-1,2-dihydroxy-4-(methylsulfonyl)cyclohexyl)methyl)-1-ethyl-1H-pyrazole-3-carboxamide] were, in that order, 2 nM, 5.7 nM and 101%.
Taken in the same sequence, the figures for `CCn1nc(C(=O)NC[C@]2(O)CC[C@@H](S(N)(=O)=O)CC2)c(Cl)c1-c1cnc(CC(C)(C)C(F)(F)F)cc1OC(F)F` [Example 1, 4-Chloro-5-(4-(difluoromethoxy)-6-(3,3,3-trifluoro-2,2-dimethylpropyl)pyridin-3-yl)-1-ethyl-N-(((1s,4s)-1-hydroxy-4-sulfamoylcyclohexyl)methyl)-1H-pyrazole-3-carboxamide] were 11 nM, 110 nM and 116%.
`CCn1nc(C(=O)NC[C@]2(O)CC[C@@H](S(N)(=O)=O)CC2)c(C)c1-c1cnc(CC(C)(C)C(F)(F)F)cc1OC(F)F` [Example 2, 5-(4-(Difluoromethoxy)-6-(3,3,3-trifluoro-2,2-dimethylpropyl)pyridin-3-yl)-1-ethyl-N-(((1s,4s)-1-hydroxy-4-sulfamoylcyclohexyl)methyl)-4-methyl-1H-pyrazole-3-carboxamide] showed a Kd in test [1] of 29 nM. In addition, the half-inhibitory concentration (IC50) in test [2] was 930 nM. For the same compound, the inhibition at 3 µM in test [2] (setting [3]) was determined as 104%.
On to `CCn1nc(C(=O)NC[C@H]2CC[C@H](S(=O)(=O)NC(C)=O)CC2)c(Cl)c1-c1cnc(CC(C)(C)C(F)(F)F)cc1OC(F)F` [Example 5, N-(((1r,4r)-4-(N-acetylsulfamoyl)cyclohexyl)methyl)-4-chloro-5-(4-(difluoromethoxy)-6-(3,3,3-trifluoro-2,2-dimethylpropyl)pyridin-3-yl)-1-ethyl-1H-pyrazole-3-carboxamide], for which, in test [1], the Kd was found to be 8.7 nM. Further, in test [2] (3 μM compound concentration (footnote *)), the “RORγt (FL) Reporter Assay A or B, % inhibition” value is given as 79* %. Also, the IC50 in test [2] is 430 nM.
